Results on 13 compounds are retold here after ChEMBL document CHEMBL2029205 (Bioorg Med Chem Lett, 2012).

One data set in a line: cells. The settings on record: Mus musculus, Melan-a, 96 h.
Data set [1] addresses T1, Tyrosinase (Agaricus bisporus, UniProt O42713).
T1 sequence (O42713 whole entry): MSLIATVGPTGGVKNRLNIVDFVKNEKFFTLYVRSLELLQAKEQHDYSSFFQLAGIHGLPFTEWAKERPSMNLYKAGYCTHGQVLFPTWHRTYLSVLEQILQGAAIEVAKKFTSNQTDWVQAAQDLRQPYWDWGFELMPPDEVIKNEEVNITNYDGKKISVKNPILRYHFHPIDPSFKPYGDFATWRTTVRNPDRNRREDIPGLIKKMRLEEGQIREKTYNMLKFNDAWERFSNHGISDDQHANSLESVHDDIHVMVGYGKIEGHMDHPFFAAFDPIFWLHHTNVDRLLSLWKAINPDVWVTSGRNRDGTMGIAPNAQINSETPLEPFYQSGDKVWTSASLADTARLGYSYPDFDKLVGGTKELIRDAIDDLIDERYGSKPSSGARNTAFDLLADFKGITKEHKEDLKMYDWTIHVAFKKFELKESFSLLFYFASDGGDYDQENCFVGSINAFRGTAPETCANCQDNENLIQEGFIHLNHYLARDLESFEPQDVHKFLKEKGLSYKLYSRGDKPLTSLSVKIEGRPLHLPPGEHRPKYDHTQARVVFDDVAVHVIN
Description: Inhibition of mushroom tyrosinase using L-tyrosine as substrate after 20 mins by spectrophotometry

The target in data set [2] is T1, Tyrosinase. The data set can be described thus: Inhibition of mushroom tyrosinase using L-DOPA as substrate after 20 mins by spectrophotometry.
The nature of the next data set: in vitro. The conditions noted are these: mouse, Melan-a cells.

Description for cells: Cytotoxicity against mouse Melan-a cells after 4 days by crystal voilet method
Description for in vitro: Ratio of IC50 for cytotoxicity against mouse Melan-a cells to IC50 for depigmentation in mouse Melan-a cells

With `COc1ccc(C(=O)OCc2cc(=O)c(O)co2)c(O)c1`, the IC50 in the data set “cells” is over 80 µM; on Tyrosinase [1], 10.6 µM; on Tyrosinase [2], 20.1 µM.

With `COc1ccc(C(=O)OCc2cc(=O)c(O)co2)cc1`, the IC50 in “cells” was over 80 µM; against Tyrosinase [1], 2.03 µM; on Tyrosinase [2], 2.05 µM.

In “cells”, `COc1coc(COC(=O)c2ccc(O)c(C34CC5CC(CC(C5)C3)C4)c2)cc1=O` returned an IC50 of 23.8 µM. Moreover, in the data set “in vitro”, the selectivity ratio worked out at 6.16.

For `O=C(OCc1cc(=O)c(O)co1)c1ccc(O)cc1`, the values for the half-inhibitory concentration (IC50) in “cells”, against Tyrosinase [1] and at Tyrosinase [2] were over 80 µM, 2.8 µM and 1.8 µM, respectively.

Consider `O=C(OCc1cc(=O)c(O)co1)c1ccc(O)cc1O`, for which the values for the IC50 in the data set “cells”, against Tyrosinase [1] and against Tyrosinase [2] were over 80 µM, 3.51 µM and 3.61 µM, respectively.

For the compound `O=C(OCc1cc(=O)c(O)co1)c1ccc(O)c(C23CC4CC(CC(C4)C2)C3)c1`, the IC50 in the data set “cells” was 27.6 µM; on Tyrosinase [1], over 200 µM; against Tyrosinase [2], over 200 µM. Moreover, the selectivity ratio in the data set “in vitro” was 7.25.

As to `COc1ccc(C(=O)OCc2cc(=O)c(O)co2)cc1C12CC3CC(CC(C3)C1)C2`, the results for the IC50 in the data set “cells”, against Tyrosinase [1] and against Tyrosinase [2] were 19 µM, over 200 µM and over 200 µM, respectively. The selectivity ratio in the data set “in vitro” was 5.55.

As for `COc1cc(O)c(C(=O)OCc2cc(=O)c(O)co2)cc1C12CC3CC(CC(C3)C1)C2`, the IC50 was 26.8 µM in “cells”, over 200 µM at Tyrosinase [1] and over 200 µM against Tyrosinase [2]. For the same compound, the selectivity ratio in the data set “in vitro” was determined as 3.

Consider `COc1ccc(C(=O)OCc2cc(=O)c(OC)co2)cc1C12CC3CC(CC(C3)C1)C2`, for which, in “cells”, the IC50 was 31.3 µM. Moreover, in “in vitro”, the selectivity ratio stood at 6.54.

Regarding `COc1cc(OC)c(C23CC4CC(CC(C4)C2)C3)cc1C(=O)OCc1cc(=O)c(O)co1`, the IC50 was 17.6 µM in the data set “cells”, over 200 µM against Tyrosinase [1] and over 200 µM against Tyrosinase [2]. Besides, the selectivity ratio in the data set “in vitro” came to 4.39.

In the case of `O=C(OCc1cc(=O)c(O)co1)c1cc(C23CC4CC(CC(C4)C2)C3)c(O)cc1O`, the IC50 in the data set “cells” was 27.4 µM; against Tyrosinase [1], over 200 µM; at Tyrosinase [2] it was over 200 µM. Also, in “in vitro”, the selectivity ratio is 3.41.

Take `COc1ccc(C(=O)OCc2cc(=O)c(O)co2)c(OC)c1`: the IC50 was over 80 µM in the data set “cells”, 3.23 µM on Tyrosinase [1] and 4.8 µM at Tyrosinase [2].

Regarding `Oc1ccc(O)cc1` [HYDROQUINONE], the IC50 in “cells” came out at 15 µM; at Tyrosinase [1], 10 µM. In addition, in the data set “in vitro”, the selectivity ratio was 3.56.
